Measurements reported in ChEMBL document CHEMBL4418260, “Cyclopentanecarboxamide derivatives, medicaments containing such compounds and their use” (2017).

Assays:
Format in all cases: cell-based
[1] = target: Fatty acid synthase (Mus musculus) (UniProt P19096); assay: Inhibition of FAS in mouse N42 cells assessed as [14C]-acetate incorporation at 10 uM preincubated for 60 mins followed by [14C]-acetate addition and measured after 4 hrs by beta scintillation counting method relative to control; design: scale not given: the % may be the effect or the level left
Fatty acid synthase = Fatty acid synthase (Homo sapiens, UniProt P49327); assay: Inhibition of human HeLa cell derived FAS preincubated for 60 mins in presence of acetyl coenzyme A and NADPH followed by malonyl coenzyme A addition and measured after 10 mins by fluorescence method
[2] = target: Fatty acid synthase (Mus musculus) (UniProt P19096); assay: Inhibition of FAS in mouse N42 cells assessed as [14C]-acetate incorporation at 100 uM preincubated for 60 mins followed by [14C]-acetate addition and measured after 4 hrs by beta scintillation counting method relative to control; design: scale not given: the % may be the effect or the level left

Chain of Fatty acid synthase (Mus musculus) (P19096 whole entry): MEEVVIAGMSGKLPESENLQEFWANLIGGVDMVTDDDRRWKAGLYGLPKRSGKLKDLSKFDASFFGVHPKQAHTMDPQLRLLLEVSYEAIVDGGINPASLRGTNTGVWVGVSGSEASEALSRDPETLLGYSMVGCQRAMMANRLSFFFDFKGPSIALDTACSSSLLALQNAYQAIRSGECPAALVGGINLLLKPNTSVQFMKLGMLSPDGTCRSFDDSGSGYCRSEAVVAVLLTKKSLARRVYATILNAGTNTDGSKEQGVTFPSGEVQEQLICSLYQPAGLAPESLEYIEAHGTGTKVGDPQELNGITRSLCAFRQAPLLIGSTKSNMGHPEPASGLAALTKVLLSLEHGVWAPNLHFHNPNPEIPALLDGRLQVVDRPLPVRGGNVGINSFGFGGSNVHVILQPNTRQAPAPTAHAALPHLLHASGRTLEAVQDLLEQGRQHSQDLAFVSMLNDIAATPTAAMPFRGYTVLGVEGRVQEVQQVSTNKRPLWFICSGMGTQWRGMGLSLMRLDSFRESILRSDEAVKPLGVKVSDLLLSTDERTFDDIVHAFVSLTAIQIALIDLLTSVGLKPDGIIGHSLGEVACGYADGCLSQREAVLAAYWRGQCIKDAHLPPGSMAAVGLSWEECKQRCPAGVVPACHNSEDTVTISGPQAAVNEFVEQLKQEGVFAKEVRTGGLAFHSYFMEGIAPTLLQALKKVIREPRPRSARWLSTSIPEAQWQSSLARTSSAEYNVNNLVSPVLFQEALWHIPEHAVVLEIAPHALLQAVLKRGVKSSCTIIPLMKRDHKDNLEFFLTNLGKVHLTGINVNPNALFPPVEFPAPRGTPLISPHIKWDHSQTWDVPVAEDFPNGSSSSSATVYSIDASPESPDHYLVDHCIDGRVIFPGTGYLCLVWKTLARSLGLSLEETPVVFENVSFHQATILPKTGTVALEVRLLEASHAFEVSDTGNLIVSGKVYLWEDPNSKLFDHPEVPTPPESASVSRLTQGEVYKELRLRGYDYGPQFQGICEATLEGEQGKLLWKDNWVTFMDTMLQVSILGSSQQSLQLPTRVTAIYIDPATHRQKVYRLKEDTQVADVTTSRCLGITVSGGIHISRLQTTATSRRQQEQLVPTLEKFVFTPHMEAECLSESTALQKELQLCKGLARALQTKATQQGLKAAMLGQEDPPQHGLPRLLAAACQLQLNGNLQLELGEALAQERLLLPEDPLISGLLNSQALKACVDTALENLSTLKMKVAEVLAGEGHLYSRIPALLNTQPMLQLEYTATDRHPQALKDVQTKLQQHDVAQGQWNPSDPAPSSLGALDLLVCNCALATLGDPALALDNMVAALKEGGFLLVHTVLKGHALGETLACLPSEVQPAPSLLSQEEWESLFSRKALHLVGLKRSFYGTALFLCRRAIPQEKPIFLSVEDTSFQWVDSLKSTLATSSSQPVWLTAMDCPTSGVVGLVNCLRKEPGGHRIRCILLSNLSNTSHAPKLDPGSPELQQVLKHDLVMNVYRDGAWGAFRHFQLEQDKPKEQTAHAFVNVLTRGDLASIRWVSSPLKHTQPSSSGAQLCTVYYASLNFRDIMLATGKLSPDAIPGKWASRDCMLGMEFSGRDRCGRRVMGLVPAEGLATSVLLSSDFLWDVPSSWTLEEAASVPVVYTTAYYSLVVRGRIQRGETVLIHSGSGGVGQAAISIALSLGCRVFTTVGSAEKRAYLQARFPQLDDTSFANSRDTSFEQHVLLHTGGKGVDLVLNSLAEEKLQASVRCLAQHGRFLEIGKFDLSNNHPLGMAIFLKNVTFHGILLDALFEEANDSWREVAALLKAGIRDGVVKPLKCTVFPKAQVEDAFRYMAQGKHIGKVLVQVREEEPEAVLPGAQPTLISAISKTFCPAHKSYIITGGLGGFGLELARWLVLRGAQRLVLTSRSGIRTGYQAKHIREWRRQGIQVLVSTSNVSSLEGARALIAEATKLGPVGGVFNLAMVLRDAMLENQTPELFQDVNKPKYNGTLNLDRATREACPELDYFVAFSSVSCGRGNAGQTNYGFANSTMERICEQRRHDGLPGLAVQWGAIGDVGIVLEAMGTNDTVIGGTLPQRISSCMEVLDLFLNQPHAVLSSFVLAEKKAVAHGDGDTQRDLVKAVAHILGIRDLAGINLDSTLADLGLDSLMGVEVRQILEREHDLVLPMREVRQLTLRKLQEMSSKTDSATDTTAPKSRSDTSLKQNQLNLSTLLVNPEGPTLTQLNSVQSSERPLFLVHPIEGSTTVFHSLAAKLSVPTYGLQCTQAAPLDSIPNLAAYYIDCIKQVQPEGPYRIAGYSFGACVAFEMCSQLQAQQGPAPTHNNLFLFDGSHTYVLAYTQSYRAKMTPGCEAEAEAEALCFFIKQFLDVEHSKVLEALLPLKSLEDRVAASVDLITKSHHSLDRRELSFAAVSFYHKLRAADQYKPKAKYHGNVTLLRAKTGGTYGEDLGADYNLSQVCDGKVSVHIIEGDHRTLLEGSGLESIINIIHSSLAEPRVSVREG
Chain of Fatty acid synthase (P49327 whole entry): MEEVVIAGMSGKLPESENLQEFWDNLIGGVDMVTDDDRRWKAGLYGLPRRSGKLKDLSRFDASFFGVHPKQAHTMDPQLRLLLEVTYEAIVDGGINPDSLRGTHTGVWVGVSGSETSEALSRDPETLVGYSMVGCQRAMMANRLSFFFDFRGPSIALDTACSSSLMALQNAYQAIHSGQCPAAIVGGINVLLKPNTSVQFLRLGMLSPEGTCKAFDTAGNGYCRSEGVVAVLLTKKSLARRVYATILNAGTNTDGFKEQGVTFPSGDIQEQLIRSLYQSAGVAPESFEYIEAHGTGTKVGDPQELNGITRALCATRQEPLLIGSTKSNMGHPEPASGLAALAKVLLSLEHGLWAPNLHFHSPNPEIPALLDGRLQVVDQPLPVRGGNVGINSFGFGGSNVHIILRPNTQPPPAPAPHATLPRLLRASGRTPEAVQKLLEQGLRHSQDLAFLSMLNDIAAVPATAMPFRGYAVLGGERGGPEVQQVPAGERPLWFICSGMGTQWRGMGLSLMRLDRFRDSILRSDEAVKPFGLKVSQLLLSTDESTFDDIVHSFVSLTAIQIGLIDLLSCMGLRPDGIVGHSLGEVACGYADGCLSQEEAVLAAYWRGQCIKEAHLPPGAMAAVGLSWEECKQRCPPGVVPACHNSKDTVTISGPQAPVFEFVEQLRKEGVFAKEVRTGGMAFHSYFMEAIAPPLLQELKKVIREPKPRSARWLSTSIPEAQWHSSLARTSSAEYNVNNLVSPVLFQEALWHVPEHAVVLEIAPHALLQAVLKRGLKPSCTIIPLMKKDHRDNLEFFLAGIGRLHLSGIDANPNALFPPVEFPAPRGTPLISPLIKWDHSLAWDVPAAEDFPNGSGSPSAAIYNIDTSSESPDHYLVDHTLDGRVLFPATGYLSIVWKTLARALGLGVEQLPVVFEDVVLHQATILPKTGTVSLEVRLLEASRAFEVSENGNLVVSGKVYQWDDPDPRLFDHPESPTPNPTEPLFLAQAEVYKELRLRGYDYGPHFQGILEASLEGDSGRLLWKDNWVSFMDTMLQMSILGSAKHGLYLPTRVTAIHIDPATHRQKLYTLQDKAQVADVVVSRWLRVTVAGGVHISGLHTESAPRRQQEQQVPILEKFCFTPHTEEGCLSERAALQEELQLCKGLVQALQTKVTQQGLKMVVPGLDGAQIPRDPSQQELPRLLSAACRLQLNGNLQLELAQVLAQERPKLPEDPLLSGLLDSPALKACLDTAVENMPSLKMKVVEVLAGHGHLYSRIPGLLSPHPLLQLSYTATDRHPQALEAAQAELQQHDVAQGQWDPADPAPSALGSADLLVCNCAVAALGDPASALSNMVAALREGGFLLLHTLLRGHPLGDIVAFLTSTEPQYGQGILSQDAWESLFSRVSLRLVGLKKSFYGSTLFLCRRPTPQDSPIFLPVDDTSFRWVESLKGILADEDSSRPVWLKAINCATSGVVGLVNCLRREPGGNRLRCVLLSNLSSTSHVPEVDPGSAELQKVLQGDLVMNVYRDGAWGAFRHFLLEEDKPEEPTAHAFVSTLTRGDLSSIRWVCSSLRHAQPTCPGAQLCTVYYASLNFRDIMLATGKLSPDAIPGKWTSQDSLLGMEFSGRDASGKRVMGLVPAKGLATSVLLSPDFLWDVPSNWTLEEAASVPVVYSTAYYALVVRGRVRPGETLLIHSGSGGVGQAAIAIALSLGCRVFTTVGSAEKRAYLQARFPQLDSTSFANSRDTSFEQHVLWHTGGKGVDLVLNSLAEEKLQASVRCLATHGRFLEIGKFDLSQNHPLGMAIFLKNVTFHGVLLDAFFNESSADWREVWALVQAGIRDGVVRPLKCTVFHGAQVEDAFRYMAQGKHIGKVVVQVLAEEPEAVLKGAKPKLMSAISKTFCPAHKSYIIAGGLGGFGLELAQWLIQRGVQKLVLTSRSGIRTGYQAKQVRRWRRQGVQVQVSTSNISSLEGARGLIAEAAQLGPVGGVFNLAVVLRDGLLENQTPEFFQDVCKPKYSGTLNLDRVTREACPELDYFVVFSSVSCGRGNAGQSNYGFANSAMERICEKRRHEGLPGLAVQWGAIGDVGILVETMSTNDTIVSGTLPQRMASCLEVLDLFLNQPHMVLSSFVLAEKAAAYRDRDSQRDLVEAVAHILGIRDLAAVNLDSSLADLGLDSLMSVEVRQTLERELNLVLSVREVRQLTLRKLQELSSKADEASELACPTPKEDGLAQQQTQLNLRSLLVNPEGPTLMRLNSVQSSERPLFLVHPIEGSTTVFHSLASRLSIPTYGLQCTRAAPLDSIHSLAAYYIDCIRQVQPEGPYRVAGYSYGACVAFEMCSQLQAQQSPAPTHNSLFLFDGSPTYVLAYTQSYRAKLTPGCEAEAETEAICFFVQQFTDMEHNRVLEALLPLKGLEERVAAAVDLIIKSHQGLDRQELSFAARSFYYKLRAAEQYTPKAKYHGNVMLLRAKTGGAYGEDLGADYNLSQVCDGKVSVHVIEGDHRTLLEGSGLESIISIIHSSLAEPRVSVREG

## CCC(=O)N[C@H]1CC[C@@H](C(=O)N(C)c2ccc(-c3nc4ccccc4[nH]3)cc2)C1
[1]
  Activity: 80.8%

## CCC(=O)N[C@H]1CC[C@@H](C(=O)N(C)c2ccc(-c3nc4ccccc4o3)cc2)C1
[1]
  Activity: 64.1%

## CN(C)CCCCCC(=O)N[C@H]1CC[C@@H](C(=O)N(C)c2ccc(-c3nc4ccccc4o3)cc2)C1
Fatty acid synthase
  IC50: 500 to 3000 nM

## CCC(=O)N[C@H]1CC[C@@H](C(=O)N(C)c2ccc(-c3nc4ccccc4n3C)cc2)C1
[1]
  Activity: 85.7%

## CCCC(=O)N[C@H]1CC[C@@H](C(=O)N(C)c2ccc(-c3nc4ccccc4o3)cc2)C1
[1]
  Activity: 81%

## C/C=C/C/C=C/CCC(=O)[C@H]1O[C@H]1C(N)=O
[2]
  Activity: 73.3%

## CC(=O)N[C@H]1CC[C@@H](C(=O)N(C)c2ccc(-c3nc4ccccc4o3)cc2)C1
[1]
  Activity: 81.7%

## CCC(=O)N[C@H]1CC[C@@H](C(=O)N(C)c2ccc(-c3ccccc3)cc2)C1
[1]
  Activity: 76.8%
